From patent US20100113366A1, “USE OF PROLINE-RICH PEPTIDE DERIVED FROM HYPOTHALAMUS FOR THE MANUFACTURE OF A MEDICAMENT FOR THE TREATMENT AND/OR PROPHYLAXIS OF CATTLE LEUCOSIS” (priority 2005, published 2010)
Where no end group is shown, it is not given here.

System: cows with leucosis
Experiment: hematological and cytomorphological blood indices of cows with leucosis after PRP-1 administration in vivo
Settings: 48 h after 1st and 2nd administration; microscopic analysis
Protocol: The cows with leucosis were administered with the PRP-1 solution in concentration 1.57×10^−4 g in 1 ml in a dose of 4×10^−3 ml/kg live weight of animal twice in 48 h.
The blood samples were taken from the jugular vain of animal into the test tubes with anti-coagulant Trilon-B before administration, in 48 h after 1st and 2nd administrations, as well as in 33 days after the 2nd administration. The blood hematomorphological and cytomorphological studies were carried out according to the available methods of veterinary hematology.

## AGAPEPAEPAQPGVY [PRP-1, Ala-Gly-Ala-Pro-Glu-Pro-Ala-Glu-Pro-Ala-Gln-Pro-Gly-Val-Tyr]
  morphological changes of small lymphocytes with high resistance, neutrophils, eosinophils and monocytes in blood smears: no any morphological changes
